Test results published in patent US20220193063A1, “METABOLITES OF GLP1R AGONISTS” (Pfizer Inc., priority 2020, published 2022).

Legend:
[1] = test system: Male CD-1 mouse hepatocytes; assay: In vitro metabolism of Compound 1 in mouse cryopreserved hepatocytes; format: in vitro ADME; conditions: HPLC/UV/MS; for metabolite of Compound 1 observed in mouse hepatocyte incubations: 10 μM Compound 1, 7.5×10^5 cells/mL, 1 and 4 hrs composite sample; for Relative abundance of metabolite of Compound 1, Mouse: mouse cryopreserved hepatocytes; for Relative abundance of metabolite of Compound 1, Mouse: key: ND Not detected; trace: Trace: observed by HPLC/MS measurements only; + Minor as assessed by HPLC/UV measurements; ++ moderate as assessed by HPLC/UV measurements; +++ major as assessed by HPLC/UV measurements; * m/z 593 and m/z 505 co-eluted in rabbit hepatocytes; ** m/z 591c and m/z 593 were merged in human hepatocytes and Hepatopack; *** m/z 607 and m/z 751b were merged in rabbit hepatocytes
Description: (§1) Male CD-1 mouse hepatocytes (lot YHL), male Wistar-Han rat hepatocytes (Celsis; product number: M000065; lot: SLA), female New Zealand rabbit hepatocytes (lot 1510147), male cryopreserved cynomolgus monkey hepatocytes (Celsis; product number: M00305; lot: DNB) and mixed-gender cryopreserved human hepatocytes (Bioreclamation; product number: S01988; lot: DCM) were obtained for the hepatocyte in-vitro assessments.
(§2) At time 0 hrs 550 μL aliquots were removed from incubations and quenched with 5 volumes of ACN containing 0.1% formic acid. At 1 and 4 hrs, 275 μL aliquots were removed and quenched as above; these were combined in the same tube to prepare a composite sample. For all hepatocyte experiments, samples were processed by centrifugation at 1900×g for 5 minutes, and then the supernatant was transferred to clean glass tubes and evaporated to dryness under a stream of N2 using a Turbovap at 37° C. Sample residues were reconstituted in mobile phase prior to analysis by HPLC/UV/MS^n.
(§3) Samples were analyzed by HPLC/UV/MS^n using a Thermo Orbitrap Elite mass spectrometer in conjunction with a Thermo Open Accela UHPLC system. A 3.0×150 mm, 2.5 μm Acquity CSH C18 HPLC column (Waters) was heated to 45° C. for separation of analytes. The mobile phase was a gradient of A): water containing 0.1% formic acid, and B): acetonitrile. The flow rate was 450 μL/min, and the following gradient program was utilized: […]
(§4) UV absorbance was monitored with a photo-diode array detector from 220-450 nm. The mass spectrometer was operated in positive-ion mode with a HESI ion source at a potential of 3.0 kV, and capillary and source heater temperatures of 380 and 300° C., respectively. Sheath, auxiliary, and sweep gas flows were set to 45, 10, and 2 units, respectively. Full scan mass spectra were acquired over the range 120-1200 m/z at a resolving power of 30,000 (specified at m/z 400). Data-dependent MS^n spectra were acquired in an automated fashion at 15,000 resolving power using CID and HCD fragmentation with normalized collision energy settings of 28 and 65 V, respectively.
(§5) Metabolites were characterized by comparisons of mass spectral fragmentation patterns with that of a Compound 1 standard. All HPLC/UV/MS^n data were processed using Xcalibur v. 2.2, and integrated UV peak areas were subjected to weighted UV binning procedures utilizing an Excel template.

[2] = test system: male Wistar-Han rat hepatocytes; assay: In vitro metabolism of Compound 1 in rat cryopreserved hepatocytes; format: in vitro ADME; conditions: HPLC/UV/MS; for metabolite of Compound 1 observed in rat hepatocyte incubations: 10 μM Compound 1, 7.5×10^5 cells/mL, 1 and 4 hrs composite sample; for Relative abundance of metabolite of Compound 1, Rat: rat cryopreserved hepatocytes; for Relative abundance of metabolite of Compound 1, Rat: key: ND Not detected; trace: Trace: observed by HPLC/MS measurements only; + Minor as assessed by HPLC/UV measurements; ++ moderate as assessed by HPLC/UV measurements; +++ major as assessed by HPLC/UV measurements; * m/z 593 and m/z 505 co-eluted in rabbit hepatocytes; ** m/z 591c and m/z 593 were merged in human hepatocytes and Hepatopack; *** m/z 607 and m/z 751b were merged in rabbit hepatocytes
Description: as §1, §2, §3, §4, §5

[3] = test system: female New Zealand rabbit hepatocytes; assay: In vitro metabolism of Compound 1 in rabbit cryopreserved hepatocytes; format: in vitro ADME; conditions: HPLC/UV/MS; for metabolite of Compound 1 observed in rabbit hepatocyte incubations: 10 μM Compound 1, 7.5×10^5 cells/mL, 1 and 4 hrs composite sample; for Relative abundance of metabolite of Compound 1, Rabbit: rabbit cryopreserved hepatocytes; for Relative abundance of metabolite of Compound 1, Rabbit: key: ND Not detected; trace: Trace: observed by HPLC/MS measurements only; + Minor as assessed by HPLC/UV measurements; ++ moderate as assessed by HPLC/UV measurements; +++ major as assessed by HPLC/UV measurements; * m/z 593 and m/z 505 co-eluted in rabbit hepatocytes; ** m/z 591c and m/z 593 were merged in human hepatocytes and Hepatopack; *** m/z 607 and m/z 751b were merged in rabbit hepatocytes
Description: as §1, §2, §3, §4, §5

[4] = test system: male cryopreserved cynomolgus monkey hepatocytes; assay: In vitro metabolism of Compound 1 in monkey cryopreserved hepatocytes; format: in vitro ADME; conditions: HPLC/UV/MS; for metabolite of Compound 1 observed in monkey hepatocyte incubations: 10 μM Compound 1, 7.5×10^5 cells/mL, 1 and 4 hrs composite sample; for Relative abundance of metabolite of Compound 1, Monkey: monkey cryopreserved hepatocytes
Description: as §1, §2, §3, §4, §5

[5] = test system: mixed-gender cryopreserved human hepatocytes; assay: In vitro metabolism of Compound 1 in human cryopreserved hepatocytes; format: in vitro ADME; conditions: HPLC/UV/MS; for metabolite of Compound 1 observed in human hepatocyte incubations: 10 μM Compound 1, 7.5×10^5 cells/mL, 1 and 4 hrs composite sample; for Relative abundance of metabolite of Compound 1, Human: human cryopreserved hepatocytes
Description: as §1, §2, §3, §4, §5

[6] = test system: human co-cultured hepatocytes (Hepatopack); assay: In vitro metabolism of Compound 1 in human micropatterned co-cultured hepatocytes (Hepatopack); format: in vitro ADME; conditions: human co-cultured hepatocytes (Hepatopack); HPLC/UV/MS; note: key: ND Not detected; trace: Trace: observed by HPLC/MS measurements only; + Minor as assessed by HPLC/UV measurements; ++ moderate as assessed by HPLC/UV measurements; +++ major as assessed by HPLC/UV measurements; * m/z 593 and m/z 505 co-eluted in rabbit hepatocytes; ** m/z 591c and m/z 593 were merged in human hepatocytes and Hepatopack; *** m/z 607 and m/z 751b were merged in rabbit hepatocytes
Source text: Micro-patterned co-cultured (MPCC) hepatocyte 24-well plates containing human donors (16 wells each) were provided by Ascendance Biotechnology (formerly Hepregen Corp. (Medford, Mass.). [see Wang W W W, Khetani S R, Krzyzewski S, et al. Assessment of a Micropatterned Hepatocyte Coculture System to Generate Major Human Excretory and Circulating Drug Metabolites. Drug Metab Dispos 2010; 38(10):1900-51 The MPCCs were created at Ascendance Biotechnology and maintained in serum containing medium for 5-6 days to allow for stabilization of the co-cultures prior to shipment. A mixed-gender cryopreserved pool of 10 human donors (X008001-P; lot YFA) was used to seed the plates and was purchased from BioreclamationlVT (Westbury, N.Y.). MPCC hepatocytes are plated with fibroblasts in a 1:3 ratio with ˜25,000 hepatocytes/well in a 24-well plate. 24-Well MPCC plates were shipped to Pfizer, fresh medium (400 μL/well) was applied and cultures were kept at 37° C. with […] and 95% relative humidity for two days. Micropatterned co-cultures containing pooled hepatocytes were allowed 7 days to fully stabilize with respect to liver-specific functions. […] At respective time points (0, 2, and 7 days), the culture medium was removed and mixed with 4 volumes of ACN, then stored frozen at −40° C. until samples could be analyzed. Samples were subsequently processed by the addition of 2.5 mL of 1:1 ACN:MeOH containing 0.1% formic acid. After vortexing, the samples were centrifuged at 1900×g for 5 min, then the supernatant was transferred to 15 mL conical tubes and evaporated under N2 using a Turbovap set at 37° C. The residues were reconstituted in mobile phase (5:95 v:v ACN:0.1% aqueous formic acid) prior to analysis by HPLC/UV/MS^n.
as §3
as §4, with “Data-dependent MS^n spectra were acquired in an automated fashion at 15,000 resolving power using CID and HCD fragmentation with normalized collision energy settings of 28 and 65 V, respectively.” left out

[7] = Circulating metabolites of Compound 1 in rat plasma following a 1.0 mg/kg IV bolus dose; format: in vivo; conditions: 1.0 mg/kg IV bolus dose of Compound 1, pooled plasma 0.033-24 hrs, male rats
Description: (§6) Plasma and bile samples were obtained from a bile duct cannulated rat experiment (Study PK-0111) in which a 1.0 mg/kg IV bolus dose was administered to fed male rats (N=3). No control plasma was available from this experiment.
Clin Pharmacol Ther 1981; 29(3):408-13]. The entire volume of each replicate Hamilton pool was combined to create a single pooled sample (576 μL) for analysis.
(§7) Pooled plasma and bile samples were extracted with ACN containing 0.1% formic acid, and after centrifugation at 1900×g, the supernatant was transferred to clean tubes and evaporated under N2 in a Turbovap set at 37° C. Residues were reconstituted in mobile phase (5:95 v:v ACN:0.1% aqueous formic acid) prior to analysis by HPLC/UV/MS^n.
as §3, §4, §5

[8] = Metabolites of Compound 1 in rat bile following a 1.0 mg/kg IV bolus dose (bile duct cannulated rat); format: in vivo; conditions: 1.0 mg/kg IV bolus dose of Compound 1, pooled bile 0-24 hrs, bile duct cannulated male rats
Description: as §6
Bile samples (0-3, 3-7, and 7-24 hrs) from individual animals were pooled in proportion to the amount collect in each interval. Then 0.5 mL of each individual pool was combined to prepare a composite sample for analysis.
as §7, §3, §4, §5

| SMILES | metabolite of Compound 1 observed in mouse hepatocyte incubations [1] | Relative abundance of metabolite of Compound 1, Mouse [1] | metabolite of Compound 1 observed in rat hepatocyte incubations [2] | Relative abundance of metabolite of Compound 1, Rat [2] | metabolite of Compound 1 observed in rabbit hepatocyte incubations [3] | Relative abundance of metabolite of Compound 1, Rabbit [3] | metabolite of Compound 1 observed in monkey hepatocyte incubations [4] | Relative abundance of metabolite of Compound 1, Monkey [4] | metabolite of Compound 1 observed in human hepatocyte incubations [5] | Relative abundance of metabolite of Compound 1, Human [5] | Relative abundance of metabolite of Compound 1, Hepatopack [6] | detected in rat plasma [7] | detected in rat plasma ([7]; listed as m/z 331) | detected in rat bile [8] | detected in rat bile ([8]; listed as m/z 331) |
| --- | --- | --- | --- | --- | --- | --- | --- | --- | --- | --- | --- | --- | --- | --- | --- |
| O=C(O)c1ccc2nc(CN3CCC(c4cccc(O)c4O)CC3)n(C[C@@H]3CCO3)c2c1 [Metabolite 438] |  |  |  | trace |  |  |  | trace |  | trace |  |  |  |  |  |
| C[C@]1(c2ccc(Cl)cn2)Oc2cccc(C3CCNCC3)c2O1 [Metabolite 331] | observed | + | observed | trace | observed | trace | observed | + | observed | + | trace | observed | detected | observed | detected |
| C[C@]1(c2ccc(Cl)cn2)Oc2cccc(C3CCN(Cc4nc5ccc(C(=O)O)cc5[nH]4)CC3)c2O1 [Metabolite 505, (S)-2-((4-(2-(5-chloropyridin-2-yl)-2-methylbenzo[d][1,3]dioxol-4-yl)piperidin-1-yl)methyl)-1H-benzo[d]imidazole-6-carboxylic acid] | observed |  | observed |  | observed |  |  |  |  |  |  |  |  |  |  |
| C[C@]1(c2ccc(Cl)cn2)Oc2cccc(C3CCN(Cc4nc5ccc(C(=O)O)cc5n4C[C@@H]4CCO4)CC3)c2O1 [Compound 1, 2-((4-((S)-2-(5-chloropyridin-2-yl)-2-methylbenzo[d][1,3]dioxol-4-yl)piperidin-1-yl)methyl)-1-(((S)-oxetan-2-yl)methyl)-1H-benzo[d]imidazole-6-carboxylic acid] |  |  |  |  |  |  |  |  |  |  |  | detected |  | detected |  |
| O=C(O)c1ccc2nc(CN3CCC(c4cccc(O)c4O)CC3)n(C[C@@H]3CCO3)c2c1 [Metabolite 438, (S)-2-((4-(2,3-dihydroxyphenyl)piperidin-1-yl)methyl)-1-(oxetan-2-ylmethyl)-1H-benzo[d]imidazole-6-carboxylic acid] |  |  | observed as a trace metabolite |  |  |  | observed as a trace metabolite |  | observed as a trace metabolite |  |  |  |  |  |  |
| C[C@]1(c2ccc(Cl)cn2)Oc2cccc(C3CCN(Cc4nc5ccc(C(=O)O)cc5[nH]4)CC3)c2O1 [Metabolite 505] |  | trace |  | trace |  |  |  |  |  |  |  |  |  |  |  |

Next, values leading:

| metabolite of Compound 1 observed in mouse hepatocyte incubations [1] | Relative abundance of metabolite of Compound 1, Mouse [1] | metabolite of Compound 1 observed in rat hepatocyte incubations [2] | Relative abundance of metabolite of Compound 1, Rat [2] | metabolite of Compound 1 observed in rabbit hepatocyte incubations [3] | Relative abundance of metabolite of Compound 1, Rabbit [3] | metabolite of Compound 1 observed in monkey hepatocyte incubations [4] | Relative abundance of metabolite of Compound 1, Monkey [4] | metabolite of Compound 1 observed in human hepatocyte incubations [5] | Relative abundance of metabolite of Compound 1, Human [5] | Relative abundance of metabolite of Compound 1, Hepatopack [6] | detected in rat plasma [7] | detected in rat plasma ([7]; listed as m/z 331) | detected in rat bile [8] | detected in rat bile ([8]; listed as m/z 331) | SMILES |
| --- | --- | --- | --- | --- | --- | --- | --- | --- | --- | --- | --- | --- | --- | --- | --- |
| observed | + | observed | trace | observed | + | observed | trace | observed | + | + |  |  |  |  | C[C@]1(c2ccc(Cl)cn2)Oc2cccc(-c3cc[n+](Cc4nc5ccc(C(=O)O)cc5n4C[C@@H]4CCO4)cc3)c2O1 [Metabolite 569] |
| observed |  | observed |  | observed |  | observed |  | observed |  |  |  |  |  |  | C[C@]1(c2ccc(Cl)cn2)Oc2cccc(C3CCN(Cc4nc5ccc(C(=O)O)cc5n4CC(O)CCO)CC3)c2O1 (stereo in doubt) [Metabolite 593] |
|  | ++ |  | + |  | ++ |  | +++ |  | +++ | ++ |  |  |  |  | CC1(c2ccc(Cl)cn2)Oc2cccc(C3CCN(Cc4nc5ccc(C(=O)OC6OC(C(=O)O)C(O)C(O)C6O)cc5n4CC4CCO4)CC3)c2O1 (stereo not shown) [Metabolite 751b] |
| observed |  | observed |  | observed |  | observed |  | observed |  |  |  |  |  |  | C[C@]1(c2ccc(Cl)cn2)Oc2cccc(C3CC[N+]([O-])(Cc4nc5ccc(C(=O)O)cc5n4C[C@@H]4CCO4)CC3)c2O1 (stereo partly shown) [Metabolite 591d] |
